Experimental data taken from patent publication US8071652B2, “Method of treating irritable bowel syndrome” (The Board of Regents of the University of Texas System, priority 2003, dated 2011).
Entries after “also recorded” stand apart in the source; their conditions may differ.

Key:
Myeloperoxidase (MPO) = Myeloperoxidase (MPO) assay of colon extracts; type: in vivo, rat; details: sensitized rats, 5 mg/kg i.p. for four days
Protocol: Descending colons were placed in 10% buffered formalin and portions were frozen for myeloperoxidase (MPO) assays. Haematoxilin & Eosin stained parafin sections will be scored for inflammation by a pathologist.
Myeloperoxidase (MPO) assays were performed as described (Bhatia et al., Proc Natl Acad Sci USA 95:4760-4756, 1998). Frozen colon was homogenized in 20 mM phosphate buffer pH 7.4 and cetrifuged at 10,000× g for 10 minutes at 4° C. Pellet was resuspended in 50 mM phosphate buffer, pH 6.0 containing 0.5% hexadecyltrimethylammonium bromide. Samples were subjected to one cycle of freeze thawing, were incubated at 6° C. for 2 hrs and cetrifuged at 10,000× g for 5 min at 4° C. Change in absorbance at 655 nm was measured in reaction mix containing 1.6 mM TMB (Sigma) and 0.3 mM H2O2 on a Beckman DU-64 spectrophotometer. Activity was normalized to protein as measured in the extracts. Protein was measured by the BCA method (Pierce, Rockford, Ill.). Activity was expressed as the change in absorbance/min/mg protein.

sensitized rats = experiment: Colorectal distention (CRD) sensitivity in visceral sensitization model; type: in vivo, rat
Protocol: New born rats were sensitized by infusion of 0.2 mls of 0.5% acetic acid into the colon at P10, control animals received saline.
At eight weeks of age, rats in four treatment groups: control+vehicle (n=3), control+cni-1493 (n=3), sensitized+vehicle (n=8), sensitized+cni-1493 (n=8) were tested after administration of drug (dissolved in 2.5% mannitol, injected i.p. at 5mg/kg for four days) for sensitivity to colorectal distention (CRD). Vehicle injected animals received 2.5% mannitol in water.
For electromyographic (EMG) measurements of visceromotor responses, under anesthesia (Nembutal, 50 mg/kg i.p.), two electrodes were implanted in the abdominal wall muscles and externalized behind the head. Rats were allowed a one week recovery time from this surgery. Under mild sedation (Brevital, […]), a 7 cm flexible balloon constructed from a surgical glove finger attached to tygon tubing was inserted into the descending colon and rectum via the anus and held in place by taping the tubing to the tail. Rats were housed in small Lucite cubicles (20×8×8 cm) and were allowed to adapt for one hour. CRD was performed by rapidly inflating the balloon to constant pressure. Pressure was measured using a sphygmomanometer connected to a pressure transducer. Rats were given graded CRD (20, 40, 60, 80 mm Hg) applied for 20 seconds every 4 minutes. […]

In the case of CC(=NN=C(N)N)c1cc(NC(=O)CCCCCCCCC(=O)Nc2cc(C(C)=NN=C(N)N)cc(C(C)=NN=C(N)N)c2)cc(C(C)=NN=C(N)N)c1.Cl.Cl.Cl.Cl [CNI-1493, N,N′-bis[3,5-diacetylphenl] decanediamidetetrakis[amidinohydrazone] tetrahvdrochloride], the “MPO activity in colon” value (Myeloperoxidase (MPO)) is reported as “significantly lowered”, the “Chronic visceral hypersensitivity (CVH)” value (sensitized rats; sensitized animals, CNI1493 treatment) is reported as “ameliorates CVH” and the “Sensitivity to CRD” value (sensitized rats; sensitized rats, 5 mg/kg i.p. for four days, graded CRD, vs vehicle, 5 mg/kg) is reported as “significant effect; also recorded: significantly reduced”.
